Results on ten molecules are retold here after US5656440A, “Nucleotide sequences coding for the bovine β3 -adrenergic receptor (ARβ3) and their applications” (Virbac, priority 1993, dated 1997).

Where two headings read alike, the source gives them in different places.

A word on the Ki: it is the equilibrium dissociation constant of an inhibitor or competing ligand from its target.

Experiment [1] has as its target T1, bovine ARβ3 receptor (Bos taurus, UniProt P46626).
T1 construct: to liberate the 1598-base pair fragment containing the coding region of the bovine β3 gene; expressed in transfected cells
In words: adenylate cyclase activation (cAMP accumulation) in CHO cells, bovine receptor (clone 62-26). Type of experiment: cell-based. Set-up: Emax: dose or concentration left out as unconfirmed. As to conditions: for Emax at 100 µM / Emax: 0.5 h, read-out: Accumul. cAMP IA (intrinsic activity); for Emax: CHO. The method, then:
Briefly, preconfluent cells in six-well plates (0.6×10^6 cells/well) are placed in contact or otherwise with increasing doses of ligands for 30 minutes at 37° C. Reaction is stopped by washing in PBS at 4° C. and adding 500 μl of 1N NaOH. After centrifugation and neutralization with 1N acetic acid, the cell lysates are recovered and the total amount of cAMP accumulated is determined using a commercial assay kit.
In general terms: cAMP levels reflect the balance of adenylyl cyclase and phosphodiesterase activity.

Experiment [2] concerns the target T1, bovine ARβ3 receptor. Briefly: competitive binding of ligands against [^125 I]cyanopindolol on intact CHO cells, bovine receptor (clone 62-26). The method, then:
Reaction is stopped by dilution with ice-cold PBS, the cells are filtered off and the radioactivity is measured in a gamma counter. The results were analysed using Graph-Pad.COPYRGT. software.

In experiment [3] the target is mouse ARβ3 receptor. Particulars: Mouse RAβ3-CHO; read-out: Binding Ki; cited from earlier work.
Experiment [4] has as its target human ARβ3 receptor. Particulars: Human RAβ3-CHO; read-out: Binding Ki; cited from earlier work.
Experiment [5] deals with β1 -, β2 - and β3 -AR. As to conditions: β1, β2, β3 subtypes; cited from earlier work.
For experiment [6], the system named is human ARβ3 receptor. As to conditions: cited from earlier work; for Accumul. cAMP IA (intrinsic activity) / EC50: Human RAβ3-CHO; for Accumul. cAMP IA (intrinsic activity): ratio of effect of ligand at 10^-4 M to effect of isoproterenol at 10^-4 M, 100 µM; for EC50: read-out: Accumul. cAMP Kact (adenylate cyclase activation constant); for functional character (agonist/antagonist): human ARβ3.

For experiment [7], the system named is bovine ARβ3. Briefly: binding of [^125 I]cyanopindolol to transfected cells stably expressing ARβ3. The text has this: Stable colonies are screened for their capacity to bind specifically to [^125 I]cyanopindolol and also for their capacity to stimulate adenylate cyclase in the presence of isoproterenol, in accordance with protocol described in TATE et al., Eur. J. Biochem., 191, 196, 357-361.

Experiment [8] has as its system mouse ARβ3 receptor. Particulars: cited from earlier work; for functional character (agonist/antagonist): mouse ARβ3; for Accumul. cAMP IA (intrinsic activity) / EC50: Mouse RAβ3-CHO; for Accumul. cAMP IA (intrinsic activity): ratio of effect of ligand at 10^-4 M to effect of isoproterenol at 10^-4 M, 100 µM; for EC50: read-out: Accumul. cAMP Kact (adenylate cyclase activation constant).

The mark [9] stands for this setting: BovineRAβ3-CHO, ratio of effect of ligand at 10^-4 M to effect of isoproterenol at 10^-4 M.
The mark [10] stands for this setting: BovineRAβ3-CHO, 30 minutes at 37° C., read-out: Accumul. cAMP Kact (adenylate cyclase activation constant).
The mark [11] stands for this setting: BovineRAβ3-CHO, 0.5 nM [^125 I]cyanopindolol, 30 minutes at 37° C., read-out: Binding Ki.

T1 sequence (P46626 whole entry, the tested form may be a part): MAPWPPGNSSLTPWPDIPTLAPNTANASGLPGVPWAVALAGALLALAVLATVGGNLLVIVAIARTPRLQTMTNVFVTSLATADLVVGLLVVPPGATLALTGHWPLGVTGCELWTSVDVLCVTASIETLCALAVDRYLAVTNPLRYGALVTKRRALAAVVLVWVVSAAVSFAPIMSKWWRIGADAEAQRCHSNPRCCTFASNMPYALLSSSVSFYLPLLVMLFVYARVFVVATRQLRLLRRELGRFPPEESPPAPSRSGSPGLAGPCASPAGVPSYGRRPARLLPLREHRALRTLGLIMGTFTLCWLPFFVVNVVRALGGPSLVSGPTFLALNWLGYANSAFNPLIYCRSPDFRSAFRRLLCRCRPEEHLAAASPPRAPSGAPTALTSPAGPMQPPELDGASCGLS

Regarding `CC(C)(C)NCC(O)COc1cccc2[nH]c(=O)[nH]c12` (stereo not drawn) [CGP 12177A], the Emax at 100 µM in experiment [1] (setting [9]) turned out to be 93 ± 20%. For the same molecule, the results for the EC50 in experiment [1] (setting [10]) and in experiment [6] were 0.00141 µM and 0.139 ± 0.044 µM, respectively. Besides, the Ki is 0.218 ± 0.161 µM in experiment [2] (setting [11]), 0.152 ± 0.019 µM in experiment [3] and 0.088 ± 0.022 µM in experiment [4]. Also, the described agonist/antagonist class entry in experiment [5] was “specific for the ARβ3 receptor (β1 -, β2 -AR antagonists)”. Further, the “Accumul. cAMP IA (intrinsic activity)” value in experiment [6] was 0.68 ± 0.02.

With `CC(C)(C)NCC(O)COc1cccc2[nH]c(C#N)c([125I])c12` (stereo not drawn) [[^125 I]cyanopindolol], the “binding affinity compared to ARβ3 in man or in mouse” value in experiment [7] is “affinity equivalent to that of the corresponding ARβ3 in man or in mouse”.

As to `CC(C)NC[C@H](O)COc1cccc2ccccc12` [(- ) propranolol, (-)-propranolol], the “functional character (agonist/antagonist)” value in experiment [8] was “antagonist”. In experiment [6], the “Accumul. cAMP IA (intrinsic activity)” value is listed as 0.51 ± 0.12 and the “functional character (agonist/antagonist)” value is “partial agonist”.

`NC[C@H](O)c1ccc(O)c(O)c1` [(-) norepinephrine, (-)-norepinephrine]: the EC50 in experiment [1] is 0.054 ± 0.0043 µM; in experiment [8], 0.013 ± 0.004 µM; in experiment [6], 0.00632 ± 0.0007 µM. In addition, in experiment [1], the Emax is 100 ± 50%. Also, the Ki in experiment [2] is 0.423 ± 0.255 µM; in experiment [3] it was 1.84 µM; in experiment [4], 0.475 ± 0.075 µM. Besides, the described agonist/antagonist class result in experiment [5] was “β1 -, β2 - and β3 -AR-receptor agonists”. Besides, the figures for the “Accumul. cAMP IA (intrinsic activity)” value in experiment [8] and in experiment [6] were 1.06 ± 0.06 and 1.00, respectively.

Regarding `C[C@H](Cc1ccc(OCC(=O)O)cc1)NC[C@H](O)c1cccc(Cl)c1` (relative stereo) [BRL 37344], the results for the EC50 in experiment [1], in experiment [8] and in experiment [6] were 0.0003 µM, 0.0004 ± 0.0001 µM and 0.015 ± 0.003 µM, respectively. For the same molecule, in experiment [1], the Emax was determined as 84 ± 10%. Besides, the Ki in experiment [2] is 0.00213 ± 0.0014 µM; in experiment [3], 0.29 ± 0.136 µM; in experiment [4], 0.287 ± 0.092 µM. The described agonist/antagonist class entry in experiment [5] was “β1 -, β2 - and β3 -AR-receptor agonists”. Also, the “Accumul. cAMP IA (intrinsic activity)” value is 1.07 ± 0.08 in experiment [8] and 1.11 ± 0.12 in experiment [6].

As to `Cc1ccc(Cl)c(OCC(O)CNC(C)(C)C)c1` (single isomer, unassigned; (-)) [(-) bupranolol, bupranolol], the Emax at 100 µM in experiment [1] (setting [9]) amounted to 34 ± 1%. Further, in experiment [1] (setting [10]), the EC50 was 0.507 µM. Moreover, the “functional character (agonist/antagonist)” value in experiment [1] (bovine ARβ3) is reported as “partial agonist”; in experiment [8], “antagonist”; in experiment [8] (listed as bupranolol), “potent antagonist”; in experiment [6] it was “antagonist”; in experiment [6] (listed as bupranolol) it was “potent antagonist”. The Ki in experiment [2] (setting [11]) is 0.085 ± 0.04 µM; in experiment [3] it was 0.042 ± 0.019 µM; in experiment [4], 0.05 ± 0.014 µM. In experiment [5], the described agonist/antagonist class entry is listed as “antagonist of the three subtypes of receptor”.

Consider `CC(C)(Cc1c[nH]c2ccccc12)NCC(O)COc1ccccc1C#N` (stereo not drawn) [Bucindolol, bucindolol], for which the Emax at 100 µM in experiment [1] (setting [9]) worked out at 99 ± 10%. Also, the EC50 in experiment [1] (setting [10]) was 0.0128 µM; in experiment [8], 0.04 ± 0.014 µM; in experiment [6], 0.007 ± 0.0012 µM. Further, the figures for the inhibitory constant (Ki) in experiment [2] (setting [11]), in experiment [3] and in experiment [4] were 0.073 ± 0.042 µM, 0.021 ± 0.005 µM and 0.023 ± 0.01 µM, respectively. Further, in experiment [5], the described agonist/antagonist class result is on record as “specific for the ARβ3 receptor (β1 -, β2 -AR antagonists)”. In addition, the results for the “Accumul. cAMP IA (intrinsic activity)” value in experiment [8] and in experiment [6] were 1.11 ± 0.06 and 1.01 ± 0.10, respectively.

Regarding `CC(C)NCC(O)c1ccc(O)c(O)c1` (single isomer, unassigned; (-)) [(-) isproterenol, (-)-iso-proterenol], in experiment [1], the EC50 was found to be 0.014 ± 0.002 µM and the Emax amounted to 90 ± 10%. In experiment [2], the Ki was 0.084 ± 0.081 µM. The Ki in experiment [4] was 0.62 µM. For the same molecule, the described agonist/antagonist class entry in experiment [5] was “β1 -, β2 - and β3 -AR-receptor agonists”.

Consider `CNC[C@H](O)c1ccc(O)c(O)c1` [(- ) epinephrine, (-)-epinephrine], for which the EC50 was 0.0507 µM in experiment [1] (setting [10]), 0.023 ± 0.0003 µM in experiment [8] and 0.049 ± 0.005 µM in experiment [6]. Moreover, the Emax in experiment [1] came out at 80 ± 30%. Besides, the values for the Ki in experiment [2] (setting [11]), in experiment [3] and in experiment [4] were 11.1 µM, 4.6 µM and 20.7 µM, respectively. In addition, the described agonist/antagonist class entry in experiment [5] is “β1 -, β2 - and β3 -AR-receptor agonists”. Moreover, the “Accumul. cAMP IA (intrinsic activity)” value was 0.91 ± 0.03 in experiment [8] and 1.00 ± 0.04 in experiment [6].

As to `O=C(O)COc1ccc(OCCNCC(O)COc2ccccc2)cc1` (stereo not drawn) [ICI 201651], the EC50 is 0.0011 µM in experiment [1] (setting [10]), 0.015 ± 0.001 µM in experiment [8] and 0.02 ± 0.009 µM in experiment [6]. Further, the “Accumul. cAMP IA (intrinsic activity)” value in experiment [1] (BovineRAβ3-CHO, ratio of effect of ligand at 10^-4 M to effect of isoproterenol at 10^-4 M, 30 min, 100 µM) is 0.85 ± 0.1; in experiment [8], 1.02 ± 0.02; in experiment [6], 1.14 ± 0.14. Besides, the Ki was 0.0277 ± 0.024 µM in experiment [2] (setting [11]), 0.239 ± 0.104 µM in experiment [3] and 0.085 ± 0.012 µM in experiment [4]. In experiment [5], the described agonist/antagonist class entry was “specific for the ARβ3 receptor (β1 -, β2 -AR antagonists)”.
